Results reported in ChEMBL document CHEMBL1201862, “PubChem BioAssay data set” (2004).
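Five compound concentrations were applied to cells in 96-well plates for 48 hours; endpoints were derived by simple linear interpolation of the resulting dose-response curve. GI50 = concentration required for 50% inhibition of growth.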 Activity calls are given as the source filed them. No stated cut-off is given here; in the data, active = GI50 up to about 1.1 µM and inactive = higher.

Key:
Experiment in all cases: inhibition of tumour cell growth, NCI panel, 48 h
786-0 = system: 786-0
A549 = system: A549
CCRF-CEM = system: CCRF-CEM
DMS-273 = system: DMS-273
HL-60 = system: HL-60
KM-20L2 = system: KM-20L2
MOLT-4 = system: MOLT-4
NCI-H23 = system: NCI-H23
NCI-H522 = system: NCI-H522
OVCAR-4 = system: OVCAR-4
SF-539 = system: SF-539
SK-MEL-2 = system: SK-MEL-2
SNB-78 = system: SNB-78
SW-620 = system: SW-620
COLO 205 = system: COLO 205

Measured: GI50

O=C(CCC(=O)Nc1ccc(Cl)c(Cl)c1)CC(=O)c1ccc2ccccc2c1
inactive: 786-0 > 100 µM | A549 > 100 µM | CCRF-CEM > 100 µM | DMS-273 62.4 µM | HL-60 > 100 µM | KM-20L2 25.9 µM | MOLT-4 48.3 µM | NCI-H23 > 100 µM | NCI-H522 89.5 µM | OVCAR-4 > 100 µM | SF-539 > 100 µM | SK-MEL-2 41.8 µM | SNB-78 > 100 µM | SW-620 > 100 µM

CC(C)(C)C(=O)OCC1CCC(n2cnc3c(=O)[nH]c(N)nc32)O1 (stereo unspecified)
inactive: 786-0 > 100 µM | A549 > 100 µM | CCRF-CEM > 100 µM | COLO 205 > 100 µM | DMS-273 > 100 µM | KM-20L2 > 100 µM | NCI-H23 > 100 µM | OVCAR-4 > 100 µM | SF-539 > 100 µM | SK-MEL-2 > 100 µM | SNB-78 > 100 µM | SW-620 > 100 µM

COC(=O)C(=O)C(C(=O)C(=O)Nc1ccc([N+](=O)[O-])cc1[N+](=O)[O-])c1nc2ccc([N+](=O)[O-])cc2nc1O (stereo unspecified)
inactive: 786-0 > 100 µM | A549 > 100 µM | CCRF-CEM > 100 µM | COLO 205 > 100 µM | DMS-273 > 100 µM | HL-60 > 100 µM | KM-20L2 > 100 µM | MOLT-4 > 100 µM | NCI-H23 > 100 µM | NCI-H522 50.1 µM | OVCAR-4 > 100 µM | SNB-78 > 100 µM | SW-620 > 100 µM

O=Cc1cc2c(cc1-c1cc3c(cc1C=O)OCO3)OCO2
inactive: 786-0 > 100 µM | A549 50.4 µM | CCRF-CEM 23.4 µM | COLO 205 39.5 µM | DMS-273 64.3 µM | HL-60 34.1 µM | KM-20L2 > 100 µM | MOLT-4 45.5 µM | NCI-H23 72.4 µM | NCI-H522 64.1 µM | OVCAR-4 > 100 µM | SF-539 > 100 µM | SK-MEL-2 > 100 µM | SNB-78 > 100 µM | SW-620 55.8 µM

O=C(c1ccccc1)c1c(CC(O)c2ccncc2)n(C(=O)c2ccccc2)c2ccccc12 (stereo unspecified)
inactive: 786-0 17 µM | A549 17.8 µM | CCRF-CEM 25.1 µM | COLO 205 17.9 µM | DMS-273 17.9 µM | HL-60 18.2 µM | KM-20L2 17.7 µM | MOLT-4 18.2 µM | NCI-H23 16 µM | NCI-H522 13.2 µM | OVCAR-4 15.8 µM | SF-539 17.9 µM | SK-MEL-2 16 µM | SW-620 18.7 µM

CN(C(=O)c1ccco1)C(=S)N1CCN(c2ccccn2)CC1
inactive: 786-0 > 100 µM | A549 > 100 µM | CCRF-CEM > 100 µM | COLO 205 > 100 µM | DMS-273 > 100 µM | HL-60 > 100 µM | KM-20L2 > 100 µM | MOLT-4 > 100 µM | NCI-H23 > 100 µM | NCI-H522 > 100 µM | OVCAR-4 > 100 µM | SF-539 > 100 µM | SK-MEL-2 > 100 µM | SNB-78 > 100 µM | SW-620 > 100 µM

COc1ccc(Sc2ccccc2[N+](=O)[O-])cc1
inactive: A549 15.2 µM | CCRF-CEM 22.8 µM | COLO 205 5.69 µM | DMS-273 4.98 µM | HL-60 3.78 µM | KM-20L2 > 10 µM | MOLT-4 16.1 µM | NCI-H23 31.2 µM | OVCAR-4 65.3 µM | SF-539 26 µM | SK-MEL-2 32.1 µM | SNB-78 26.4 µM | SW-620 3.65 µM

CC1=C2N3C[C@@H](n4c(=O)n(C)c(=O)n43)C23CCC1n1c(=O)n(C)c(=O)n13
inactive: 786-0 35.6 µM | CCRF-CEM > 100 µM | COLO 205 48 µM | DMS-273 38.6 µM | HL-60 > 100 µM | KM-20L2 > 100 µM | MOLT-4 > 100 µM | NCI-H23 > 100 µM | OVCAR-4 > 100 µM | SF-539 > 100 µM | SNB-78 > 100 µM | SW-620 21.9 µM

O=C1CCCC/C1=C\c1ccc(Cl)c(Cl)c1
inactive: 786-0 > 10 µM | A549 34.4 µM | CCRF-CEM 21.3 µM | COLO 205 35.1 µM | DMS-273 20 µM | HL-60 19 µM | KM-20L2 20.7 µM | MOLT-4 18.1 µM | NCI-H23 23.3 µM | OVCAR-4 18.2 µM | SF-539 17.2 µM | SNB-78 19.1 µM | SW-620 21.6 µM

Fc1cccc(Cl)c1C1SCc2nc3ccccc3n21 (stereo unspecified)
inactive: 786-0 45.7 µM | A549 37.2 µM | CCRF-CEM 25.3 µM | COLO 205 22.8 µM | DMS-273 22.6 µM | HL-60 11 µM | KM-20L2 17.2 µM | MOLT-4 18.8 µM | NCI-H23 24.3 µM | NCI-H522 17.3 µM | OVCAR-4 31.6 µM | SF-539 22.8 µM | SK-MEL-2 21.1 µM | SNB-78 22.2 µM | SW-620 37.2 µM

CC1=C(Cl)C=CP(=O)(Oc2ccccc2)C1 (stereo unspecified)
inactive: A549 38.8 µM | CCRF-CEM > 10 µM | COLO 205 27.6 µM | DMS-273 27.5 µM | HL-60 > 10 µM | KM-20L2 > 100 µM | MOLT-4 > 10 µM | NCI-H23 45.7 µM | NCI-H522 15.6 µM | OVCAR-4 > 100 µM | SK-MEL-2 41.3 µM | SNB-78 41.1 µM | SW-620 39.4 µM

CN1Cc2ccccc2C2(COc3ccccc3C2=O)C1 (stereo unspecified)
inactive: A549 > 100 µM | CCRF-CEM 74.3 µM | DMS-273 > 100 µM | HL-60 48.9 µM | KM-20L2 > 100 µM | MOLT-4 40.8 µM | NCI-H23 > 100 µM | NCI-H522 98.2 µM | OVCAR-4 92.3 µM | SF-539 > 100 µM | SK-MEL-2 > 100 µM | SNB-78 > 100 µM | SW-620 > 100 µM

COc1ccc(C(c2ccccc2)(c2ccc(OC)cc2)N2C(=O)NC3C(CCCCC(=O)NCCCCCCOP(OCCC#N)N(C(C)C)C(C)C)SCC32)cc1 (stereo unspecified)
inactive: 786-0 18.1 µM | A549 20.3 µM | CCRF-CEM 9.12 µM | COLO 205 21.6 µM | DMS-273 12.7 µM | HL-60 12.1 µM | KM-20L2 17.1 µM | MOLT-4 7.57 µM | NCI-H23 17 µM | NCI-H522 12.7 µM | OVCAR-4 17.9 µM | SF-539 14.5 µM | SK-MEL-2 11.6 µM | SNB-78 16.2 µM | SW-620 19.8 µM

O=C(CC(=O)N1N=C(c2ccccc2)C(/N=N/c2ccccc2Cl)C1=O)Nc1ccccc1Cl (stereo unspecified)
inactive: 786-0 20.8 µM | A549 21.4 µM | COLO 205 31.6 µM | DMS-273 37.5 µM | HL-60 13 µM | KM-20L2 46.3 µM | MOLT-4 28.6 µM | NCI-H23 39.8 µM | NCI-H522 28.9 µM | OVCAR-4 20.7 µM | SF-539 29.9 µM | SK-MEL-2 43.5 µM | SNB-78 40.9 µM | SW-620 29.9 µM

C[C@]12CCc3nonc3C1CC[C@@H]1C2CC[C@]2(C)C(=O)CCC12 (stereo partly specified)
inactive: 786-0 > 100 µM | A549 25.8 µM | CCRF-CEM 24.1 µM | COLO 205 24.3 µM | DMS-273 20.7 µM | HL-60 15.5 µM | KM-20L2 26.5 µM | MOLT-4 22.4 µM | NCI-H23 30.8 µM | NCI-H522 19.8 µM | OVCAR-4 > 100 µM | SF-539 20.9 µM | SK-MEL-2 24.5 µM | SNB-78 59.6 µM | SW-620 40.1 µM

NC(CCCNc1ccc(O)cc1)C(=O)O (stereo unspecified)
inactive: 786-0 17.2 µM | A549 > 94.2 µM | CCRF-CEM 23.4 µM | COLO 205 > 54.2 µM | DMS-273 > 100 µM | HL-60 19.8 µM | KM-20L2 > 100 µM | MOLT-4 25.4 µM | NCI-H23 97.9 µM | NCI-H522 61.4 µM | OVCAR-4 17.6 µM | SF-539 35.2 µM | SK-MEL-2 31 µM | SNB-78 > 83.6 µM | SW-620 21.3 µM

N=C(NC(=N)Nc1ccc(S(=O)(=O)Nc2cnc3ccccc3n2)cc1)Nc1ccc(Br)cc1
inactive: 786-0 > 100 µM | A549 > 100 µM | CCRF-CEM > 100 µM | COLO 205 > 100 µM | DMS-273 > 100 µM | KM-20L2 > 100 µM | MOLT-4 > 100 µM | NCI-H23 > 100 µM | NCI-H522 > 100 µM | OVCAR-4 > 100 µM | SF-539 > 100 µM | SK-MEL-2 > 100 µM | SNB-78 > 100 µM | SW-620 > 100 µM

C/C(=N\NC(=O)C[N+](C)(C)C)c1sc(-c2cccnc2)nc1C
inactive: 786-0 > 100 µM | A549 > 100 µM | CCRF-CEM > 100 µM | COLO 205 > 100 µM | DMS-273 > 100 µM | HL-60 > 100 µM | KM-20L2 > 100 µM | MOLT-4 > 100 µM | NCI-H23 > 100 µM | NCI-H522 42.7 µM | SF-539 > 100 µM | SK-MEL-2 > 100 µM | SNB-78 > 100 µM | SW-620 > 100 µM

NC(=O)c1ncn(Cc2ccccc2)c1CNC(N)=S
inactive: 786-0 > 100 µM | A549 > 100 µM | CCRF-CEM > 100 µM | COLO 205 > 100 µM | DMS-273 > 100 µM | HL-60 > 100 µM | MOLT-4 > 100 µM | NCI-H23 > 100 µM | OVCAR-4 > 100 µM | SF-539 > 100 µM | SNB-78 > 100 µM | SW-620 > 100 µM
